According to patent US6825192B1, “Heterodiazinone derivatives” (Eisai Co., Ltd., priority 1999, dated 2004):
Where a name gives a salt, the structure may show the parent alone.

Tested on: AMPA receptor
Test: Inhibitory action on AMPA-inducing inflow of calcium into nerve cells (Fura2-AM)
Format: cell-based
Conditions: rat cerebral cortex nerve cells on astrocytes, 1 μM MK-801, stimulated by 2 μM AMPA, fluorescence 340/380 nm
Description: The cerebral cortex was excised from the brain of a rat on day 18 after birth and treated with trypsin and DNase, whereby the cells were dispersed. The cells were allowed to float on DMEM containing 10% serum, inoculated into a culture bottle, and their astrocytes were grown. The astrocytes were re-dispersed with trypsin and inoculated onto each well on a 96-well plate. After it was confirmed that the bottom of each well was completely covered with the astrocytes after culture for 1 week, cerebral cortex nerve cells dispersed in the same manner as above were inoculated thereon. After 24 hours, the medium was exchanged with fresh one, and after culture for further 1 week, the medium was exchanged with a medium containing 1 μM MK-801.
The inflow of calcium into the cells was measured using Fura2-AM that is a calcium-sensitive fluorescent pigment. By treating the cells with a Fura2-AM-containing medium for 1 hour, Fura2-AM was incorporated into the cells, and the medium was exchanged with a Tyrode solution containing 1 μM MK-801. After a test compound was added, the cells were stimulated by 2 μM AMPA. The change in the amount of calcium flowing into the cells was measured as a change in the fluorescence intensity at wavelengths of 340/380 nm. The effect of a test compound was evaluated where the reaction caused by AMPA added to the Tyrode solution free of the test compound was used as the control.

Structure (SMILES) | IC50
CC(c1ccccn1)N1N=C(c2ccccc2)OCC1=O (stereo not shown) [Example 87, 2-Phenyl-4-[1-(2-pyridyl)ethyl]-4H-1,3,4-oxadiazine-5(6H)-one hydrochloride] | 25.4 µM
O=C1COC(c2ccccc2)=NN1c1ccccc1[N+](=O)[O-] [Example 37, 2-Phenyl-4-(2-nitrophenyl)-4H-1,3,4-oxadiazine-5(6H)-one] | 3.94 µM
O=C1COC(c2ccccn2)=NN1c1ccc(F)cc1F [Example 10, 2-(2-Pyridyl)-4-(2,4-difluorophenyl)-4H-1,3,4-oxadiazine-5(6H)-one hydrochloride] | 44.2 µM
O=C1COC(c2ccccc2OCc2cccnc2)=NN1c1ccccc1 [Example 58, 2-[2-(3-Pyridyl)methoxyphenyl]-4-phenyl-4H-1,3,4-oxadiazine-5(6H)-one hydrochloride] | 14.3 µM
O=C1COC(c2ccccc2)=NN1c1cccnc1 [Example 39, 2-Phenyl-4-(3-pyridyl)-4H-1,3,4-oxadiazine-5(6H)-one hydrochloride] | 51.4 µM
CN(C)c1cccc(C2=NN(c3ccccc3)C(=O)CO2)c1 [Example 90, 2-(3-Dimethylaminophenyl)-4-phenyl-4H-1,3,4-oxadiazine-5(6H)-one] | 31.4 µM
O=C1COC(c2ccccc2OCCN2CCOCC2)=NN1c1ccccc1 [Example 56, 2-{2-[2-(4-Morpholinyl)ethoxy]phenyl}-4-phenyl-4H-1,3,4-oxadiazine-5(6H)-one hydrochloride] | 17.6 µM
CN(C)CCOc1ccccc1C1=NN(c2ccccc2F)C(=O)CO1 [Example 66, 2-[2-(2-Dimethylaminoethoxy)phenyl]-4-(2-fluorophenyl)-4H-1,3,4-oxadiazine-5(6H)-one hydrochloride] | 3.54 µM
CN(C)CCCOc1ccccc1C1=NN(c2ccccc2)C(=O)CO1 [Example 62, 2-[2-(3-Dimethylaminopropoxy)phenyl]-4-phenyl-4H-1,3,4-oxadiazine-5(6H)-one hydrochloride] | 25.1 µM
O=C1COC(c2ccccc2OCCN2CCOCC2)=NN1c1ccc(F)cc1 [Example 70, 2-{2-[2-(4-Morpholinyl)ethoxy]phenyl}-4-(4-fluorophenyl)-4H-1,3,4-oxadiazine-5(6H)-one hydrochloride] | 27.2 µM
COc1ccccc1C1=NN(c2ccccc2Br)C(=O)CO1 [Example 17, 2-(2-Methoxyphenyl)-4-(2-bromophenyl)-4H-1,3,4-oxadiazine-5(6H)-one] | 5.83 µM
O=C1COC(C2CCCCC2)=NN1c1ccccc1 [Example 22, 2-Cyclohexyl-4-phenyl-4H-1,3,4-oxadiazine-5(6H)-one] | 67.3 µM
O=C1COC(c2ccccc2)=NN1C1CCOCC1 [Example 80, 2-Phenyl-4-(tetrahydro-4H-pyran-4-yl)-4H-1,3,4-oxadiazine-5(6H)-one] | 62 µM
O=C1COC(c2ccccc2OCCN2CCOCC2)=NN1c1ccccc1F [Example 67, 2-{2-[2-(4-Morpholinyl)ethoxy]phenyl}-4-(2-fluorophenyl)-4H-1,3,4-oxadiazine-5(6H)-one hydrochloride] | 6.62 µM
O=C1COC(c2ccccc2)=NN1c1cccs1 [Example 43, 2-Phenyl-4-(2-thienyl)-4H-1,3,4-oxadiazine-5(6H)-one] | 25.3 µM
CN(C)c1ccccc1C1=NN(c2ccccc2)C(=O)CO1 [Example 91, 2-(2-Dimethylaminophenyl)-4-phenyl-4H-1,3,4-oxadiazine-5(6H)-one] | 19.1 µM
COc1ccccc1C1=NN(C2CCCCC2)C(=O)CO1 [Example 28, 2-(2-Methoxyphenyl)-4-cyclohexyl-4H-1,3,4-oxadiazine-5(6H)-one] | 25.2 µM
O=C1COC(c2ccccc2O)=NN1c1ccccc1Br [Example 48, 2-(2-hydroxyphenyl)-4-(2-bromophenyl)-4H-1,3,4-oxadiazine-5(6H)-one] | 1.29 µM
O=C1COC(c2cccnc2)=NN1c1ccccc1 [Example 29, 2-(3-Pyridyl)-4-phenyl-4H-1,3,4-oxadiazine-5(6H)-one hydrochloride] | 43.5 µM
